In PMC11403612, “Preparation and Preclinical Characterization of a Simple Ester for Dual Exogenous Supply of Lactate and Beta-hydroxybutyrate” (Journal of Agricultural and Food Chemistry, 2024):

Assay: In vitro stability in simulated intestinal fluid
Type: in vitro ADME
Conditions: simulated intestinal fluid (SIF) with pancreatin, intestinal enzymes (pancreatin), pH = 6.8
Description: The in vitro stability of LaKe was evaluated following incubation in simulated gastric fluid (SGF), simulated intestinal fluid (SIF), fresh and frozen plasma (rats and humans, respectively), and the presence of hepatocytes (rats and humans) and liver microsomes (rats and humans). At the chosen time points, the mixtures were analyzed by LC-MS/MS to quantify the remaining LaKe and all assays included at least one control compound with known pharmacokinetic properties. […]
centrifuged at 4000 rpm, 4℃ for 20 min. 60 μL of supernatant was mixed with 180 μL of purified water for subsequent LC/MS/MS analysis.
LC-MS/MS Condition: ACQUITY UPLC BEH C18 1.7um 2.1 * 50mm Column (Part No.186002350). Mobile phase: A: 0.1% Formic Acid in Water; B: 0.1% Formic Acid in ACN.
Stability of LaKe in simulated intestinal fluid (SIF)
Preparation of SIF-solution: 0.136 g KH2PO4 and 0.064 g pancreatin was dissolved H2O to a total volume of solution 20 mL. The pH of the test solution was adjusted to 6.80 ± 0.05.
Procedure: 2 μL of a 10mg/ml working solution of LaKe in DMSO was spiked into 96-deep-well plates corresponding to timepoints T0, T60, T120, T360 and T1440. Experiments were performed in duplicate. 198 μL of SIF solution was then transferred to the individual wells (except T0) to reach 0.1mg/ml as the final test concentration for each time point (60, 120, 360, 1440 minutes). […]

Work on CC(O)CCOC(=O)C(C)O (stereo not shown) [LaKe, 3-hydroxybutyl 2-hydroxypropanoate] yielded a half-life at 0.1 mg/ml of under 2 h.
